Blank lines part the entries; values can stand above or below the compound they belong to.
Experiments:
MES-SA/Dx5 cells = assay: MTT assay of doxorubicin toxicity in multi-drug resistant cells; details: for % Toxicity: alone, 72 hours
[1] = tested on: endothelial cell monolayers; assay: [14C]-sucrose permeability (integrity) of endothelial cell monolayers, in vitro BBB model
P-glycoprotein [2] = target: T1, P-glycoprotein (Bos taurus, UniProt A0A3Q1MB23); assay: Vincristine transport/clearance across endothelial cell monolayers, in vitro BBB co-culture model; assay type: cell-based, bovine; design: P-glycoprotein is expressed in cultured endothelial cells; endogenous in cells; host or cells: primary bovine brain capillary endothelial cells, co-cultured with newborn rat astrocytes in the lower compartment
T1 sequence (A0A3Q1MB23 1-1267): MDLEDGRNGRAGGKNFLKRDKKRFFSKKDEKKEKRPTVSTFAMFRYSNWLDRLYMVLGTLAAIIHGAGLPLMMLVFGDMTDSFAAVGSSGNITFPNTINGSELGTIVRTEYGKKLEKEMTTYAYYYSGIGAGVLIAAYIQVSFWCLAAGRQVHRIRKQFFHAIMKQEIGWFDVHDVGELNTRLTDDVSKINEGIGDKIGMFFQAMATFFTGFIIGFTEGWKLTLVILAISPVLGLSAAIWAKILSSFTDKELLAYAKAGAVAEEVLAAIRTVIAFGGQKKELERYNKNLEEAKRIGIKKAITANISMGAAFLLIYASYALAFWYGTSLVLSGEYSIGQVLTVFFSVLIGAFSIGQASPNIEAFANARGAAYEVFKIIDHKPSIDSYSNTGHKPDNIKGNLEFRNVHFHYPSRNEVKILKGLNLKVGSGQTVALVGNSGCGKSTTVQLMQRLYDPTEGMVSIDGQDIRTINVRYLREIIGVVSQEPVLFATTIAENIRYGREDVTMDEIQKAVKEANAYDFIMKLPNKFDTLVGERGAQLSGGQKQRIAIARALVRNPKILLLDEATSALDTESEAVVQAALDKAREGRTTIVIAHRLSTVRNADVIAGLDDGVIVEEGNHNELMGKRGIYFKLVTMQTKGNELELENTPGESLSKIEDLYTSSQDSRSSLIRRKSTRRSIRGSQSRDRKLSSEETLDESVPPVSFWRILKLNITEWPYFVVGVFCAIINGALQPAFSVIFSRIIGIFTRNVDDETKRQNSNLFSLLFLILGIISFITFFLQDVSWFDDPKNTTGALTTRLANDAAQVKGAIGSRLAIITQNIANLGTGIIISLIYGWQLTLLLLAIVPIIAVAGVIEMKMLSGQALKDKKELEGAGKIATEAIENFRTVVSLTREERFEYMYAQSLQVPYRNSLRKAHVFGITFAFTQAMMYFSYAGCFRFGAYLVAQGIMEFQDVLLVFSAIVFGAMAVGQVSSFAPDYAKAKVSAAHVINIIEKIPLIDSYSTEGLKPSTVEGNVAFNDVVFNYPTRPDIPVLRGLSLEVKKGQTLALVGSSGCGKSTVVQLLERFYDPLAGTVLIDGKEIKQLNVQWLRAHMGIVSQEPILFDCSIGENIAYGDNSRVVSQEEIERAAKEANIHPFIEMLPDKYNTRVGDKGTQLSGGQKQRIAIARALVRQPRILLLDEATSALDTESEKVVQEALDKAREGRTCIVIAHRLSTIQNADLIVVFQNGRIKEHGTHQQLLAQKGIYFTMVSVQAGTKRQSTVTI

P-glycoprotein [3] = target: T1, P-glycoprotein; assay: Vincristine accumulation (uptake) in endothelial cells, in vitro BBB model

Structure (SMILES): CCCCCCCCCCC(CCC)C(=O)O (stereo not drawn) [DP-3,10, 2-propyldodecanoic acid]
- % Toxicity (MES-SA/Dx5 cells; 12.5 μg/ml): 0.1%

- Paracellular breakdown (opening of the tight junctions) of endothelial cells ([1]; 0.01 mg/ml, 48 hours incubation): no paracellular breakdown
- Clearance of vincristine (P-glycoprotein [2]; Example 4, even with lowest concentration 0.08 mg/ml, similar to control without cells): significant clearance
- Transport of vincristine (P-glycoprotein [2]; Example 5, 0.001 mg/ml): significant increase
- Transport of vincristine (P-glycoprotein [2]; Example 5, 0.02 and 0.08 mg/ml): Larger effects
- Transport of vincristine (P-glycoprotein [2]; Example 5 conclusion, low concentration 0.001—0.01 mg/ml): increase
- Increase in vincristine uptake compared with verapamil (P-glycoprotein [3]; Example 5, 0.001, 0.005 or 0.01 mg/ml, 60 min): lower than that observed with verapamil
- Vincristine accumulation in the cells relative to that caused by verapamil (P-glycoprotein [3]; Example 5, 0.02 or 0.08 mg/ml, 60 minute incubation): 2-3 fold
Structure (SMILES): CCCCCCCCCCCCCCC(CCC)C(=O)O (stereo not drawn) [DP-3,14, 2-propylhexadecanoic acid]
- Sucrose permeability of the monolayer ([1]; Example 4, 0.08 mg/ml, 60 min): 274%
- Sucrose permeability of the monolayer ([1]; Example 4, 0.16 mg/ml, 60 min): 266%
- Sucrose permeability of the monolayer ([1]; Example 4, […], 60 min): 278%
- Sucrose permeability of the monolayer (significant decrease) ([1]; Example 5, 0.001 mg/ml): 66%
- Sucrose permeability of the monolayer (significant decrease) ([1]; Example 5, 0.005 mg/ml): 68%
- Sucrose permeability of the monolayer ([1]; Example 5, 0.01 mg/ml): No change
- Sucrose permeability of the monolayer ([1]; Example 5, 0.02 mg/ml, 60 min): 452%
- Sucrose permeability of the monolayer ([1]; Example 5, 0.08 mg/ml, 60 min): 574%
- Transport of sucrose (paracellular marker) ([1]; Example 5 conclusion, 0.001—0.01 mg/ml): no increase
- Cellular accumulation of vincristine compared with verapamil (P-glycoprotein [3]; Example 4, 0.08 and 0.16 mg/ml, 60 min): more pronounced than the same effect induced by verapamil

Structure (SMILES): C#CCC(CCCCCCCCCCCC)C(=O)O (stereo not drawn) [DP-3-yl,12, 2,3-propynyltetradecanoic acid]
- % Toxicity (MES-SA/Dx5 cells; 3.125 μg/ml): 0.48%

Structure (SMILES): CCCCCCCC(CCCCCCC)C(=O)O [DP-7,7, 2-heptylnonanoic acid]
- % Toxicity (MES-SA/Dx5 cells; 3.125 μg/ml): 0.1%

Structure (SMILES): COc1cccc2c1C(=O)c1c(O)c3c(c(O)c1C2=O)C[C@@](O)(C(=O)CO)C[C@@H]3O[C@H]1C[C@H](N)[C@H](O)[C@H](C)O1 [Dox, doxorubicin, reference compound]
- % Toxicity (MES-SA/Dx5 cells; 0.125 μg/ml): 0%
- Concentration up to which MES-SA/Dx5 cells are resistant (MES-SA/Dx5 cells; calibration experiments): ≤ 250 ng/mL

Structure (SMILES): CC[C@]1(O)C[C@H]2CN(CCc3c([nH]c4ccccc34)[C@@](C(=O)OC)(c3cc4c(cc3OC)N(C=O)[C@H]3[C@@](O)(C(=O)OC)[C@H](OC(C)=O)[C@]5(CC)C=CCN6CC[C@]43[C@@H]65)C2)C1 [vincristine, [γ-^3H]Vincristine sulphate, reference compound]
- Toxicity for the endothelial cells / integrity of the monolayers ([1]; Example 4, 50 nM vincristine, verapamil 25 μM): not toxic
- Permeability coefficient for [14C]-sucrose (Pesucrose) ([1]; Example 4, with 50 nM vincristine): 1.33±0.08 ×10^−3 cm/min
